Among the data in PubChem BioAssay AID624344 (Sanford-Burnham Center for Chemical Genomics, 2012) are IC50 values, retold here.

A short description of experiment [1]: inhibitors of PAF-induced NFkB signaling in CF airway cells, dose response, cell-based, uHTS hits, panel, cytotoxicity readout (AID 624344). The following applies: CF bronchial epithelial cells, PAF-induced NFkB reporter inhibition; with PAF, mean of runs.
Another experiment has as its system Cytotoxicity. The experiment is described as above. The following applies: CF bronchial epithelial cells, mean of runs.

Calls of active or inactive are those of the source. No rule for the calls is given here.

The IC50 is the concentration needed to halve the response being measured. With `Cc1ccc(C(C(=O)NCc2ccccc2)N(Cc2cccs2)C(=O)c2ccc3c(c2)OCCO3)cc1` (stereo not drawn), the values for the IC50 (in experiment [1]; with Cytotoxicity) were 3.04 µM and 3.48 µM, respectively.

Take `COC(=O)N1C(=O)[C@@](c2ccc(OC)cc2)(C(C)C)N1C(=O)OC`: the IC50 in experiment [1] was 4.72 µM; in the experiment on Cytotoxicity it was 49.1 µM.

Consider `Clc1ccccc1C1=Nn2c(nnc2-c2ccncc2)SC1`, for which the IC50 in experiment [1] is 0.624 µM; with Cytotoxicity, > 79 µM (inactive).

Take `CC1(Cc2ccc(F)cc2)C(=O)Nc2ccc(-c3cccnc3)cc21` (stereo not drawn): the figures for the half-inhibitory concentration (IC50) (in experiment [1]; in the experiment with Cytotoxicity) were 2.54 µM and 18.8 µM, respectively.

On to `Cc1ccc2c(c1)C(=O)C(=O)N2Cc1ccc(Br)cc1`, for which the half-inhibitory concentration (IC50) in experiment [1] is 19.1 µM; in the experiment with Cytotoxicity it was > 79 µM (inactive).

For `COc1ccccc1[C@]1(C)ON(c2ccccc2C(F)(F)F)C1=O`, the IC50 in experiment [1] is 4.14 µM; in the experiment with Cytotoxicity, 66.9 µM (inactive).

For `Brc1ccc2ncnc(NCc3ccco3)c2c1`, the IC50 was 5.67 µM in experiment [1] and 72.7 µM (inactive) with Cytotoxicity.

Consider `Cn1cccc1C(=O)NC(=O)COC(=O)c1ccc(S(C)(=O)=O)c([N+](=O)[O-])c1`, for which the values for the 50% inhibitory concentration (IC50) (in experiment [1]; in the experiment on Cytotoxicity) were 5.26 µM and 5.85 µM, respectively.

Take `C[C@@H]1CN([C@H](C)CO)C(=O)c2cc(NC(=O)Nc3ccc(C(F)(F)F)cc3)ccc2O[C@H]1CN(C)S(=O)(=O)c1ccccc1`: the IC50 was 9.21 µM in experiment [1] and 77.2 µM (inactive) in the experiment on Cytotoxicity.

For `c1ccc2c(-c3ccc4nncn4c3)cncc2c1`, the results for the half-maximal inhibitory concentration (IC50) (in experiment [1]; with Cytotoxicity) were 1.42 µM and > 79 µM (inactive), respectively.

As for `CC1(C)Cc2c(ccc3ccccc23)C(=O)N1`, the results for the IC50 (in experiment [1]; in the experiment on Cytotoxicity) were 3.27 µM and > 79 µM (inactive), respectively.

As for `O=C1C(=Cc2ccccc2[N+](=O)[O-])Cc2ccccc21`, the results for the IC50 (in experiment [1]; with Cytotoxicity) were 6.36 µM and 8.65 µM, respectively.

Consider `Cc1cccc(Nc2ncnc3ccc(Br)cc23)c1`, for which the half-inhibitory concentration (IC50) in experiment [1] was 3.93 µM; with Cytotoxicity, 13.1 µM.

Turning to `CC1CCc2sc3ncnc(N4CCOCC4)c3c2C1` (stereo not drawn), the IC50 in experiment [1] is 5.9 µM; in the experiment on Cytotoxicity, 7.61 µM.

As to `NS(=O)(=O)c1ccc(CCNc2nn3c(-c4cccc(OC(F)(F)F)c4)cnc3s2)cc1`, the results for the IC50 (in experiment [1]; with Cytotoxicity) were 3.64 µM and 19.7 µM, respectively.

With `NC(=S)N1OC[C@@H]2COc3ccc4ccccc4c3[C@@H]21`, the values for the IC50 (in experiment [1]; with Cytotoxicity) were 4.75 µM and 31.2 µM, respectively.

In the case of `COc1ccc(Nc2nccc(-c3cccc(N)c3)n2)cc1`, the IC50 in experiment [1] is 4.14 µM; in the experiment on Cytotoxicity, 42.6 µM.

Turning to `CC(NC(=O)OCc1ccccc1)C(=O)Oc1cc2oc(=O)cc(-c3ccccc3)c2cc1Cl` (stereo not drawn), the half-maximal inhibitory concentration (IC50) in experiment [1] was 1.34 µM; with Cytotoxicity, 27.9 µM.

Consider `CC(=O)Nc1ccc(-c2ccnc3c2CC(C(=O)NCc2ccco2)O3)cc1` (stereo not drawn), for which the IC50 entry in experiment [1] was “inactive”. Also, the IC50 in the experiment with Cytotoxicity is > 79 µM (inactive).

`O=[N+]([O-])c1ccc(Oc2ccc(F)cc2)c2ccncc12`: the figures for the IC50 (in experiment [1]; in the experiment with Cytotoxicity) were 1.82 µM and 42.4 µM, respectively.

`Cc1ccc(N=Cc2cc3c(cc2O)OC(N)=C(C#N)C3c2ccccc2)cc1` (stereo not drawn): the IC50 was 2.07 µM in experiment [1] and 53.6 µM (inactive) with Cytotoxicity.

As to `Cc1ccc(CNc2ncnc3ccc(-c4ccc(CO)o4)cc23)o1`, the values for the IC50 (in experiment [1]; in the experiment with Cytotoxicity) were 0.898 µM and 3.77 µM, respectively.

In the case of `Cc1cccc2sc(N(CCCN(C)C)C(=O)CCS(=O)(=O)c3ccccc3)nc12`, the IC50 in experiment [1] is 3.22 µM; in the experiment on Cytotoxicity, 7.52 µM.

`Cc1ccc(CCC(=O)Nc2ncc(Cc3cc(Cl)ccc3Cl)s2)o1`: the IC50 in experiment [1] was 19.2 µM; in the experiment on Cytotoxicity, 13.2 µM.

Take `CCC(=O)Nc1nc(C)c(-c2csc(Nc3cccc(O)c3)n2)s1`: the IC50 in experiment [1] is 3.06 µM; in the experiment on Cytotoxicity, > 79 µM (inactive).

As for `Nc1ncnc(NCc2ccc(F)cc2)c1[N+](=O)[O-]`, the IC50 is 3.33 µM in experiment [1] and > 79 µM (inactive) in the experiment with Cytotoxicity.

As to `Cc1cccc(NS(=O)(=O)c2ccc(-c3cnc(C4CC4)o3)cc2)c1C`, the IC50 in experiment [1] was 6.37 µM; with Cytotoxicity it was 56.2 µM (inactive).

On to `O=[N+]([O-])C1C(c2ccccc2)C12c1ccccc1-c1ccccc12` (stereo not drawn), for which the IC50 result in experiment [1] is “inactive”. Moreover, the IC50 in the experiment with Cytotoxicity is 64.1 µM (inactive).

Turning to `COc1cccc(Nc2ncnc3ccc(Br)cc23)c1`, the IC50 in experiment [1] is 1.08 µM; in the experiment on Cytotoxicity, 9.61 µM.

On to `O=C(COC(=O)c1ccccc1C(=O)c1ccc(Cl)c([N+](=O)[O-])c1)NC1CCCCCC1`, for which the half-maximal inhibitory concentration (IC50) in experiment [1] was 1.6 µM; in the experiment with Cytotoxicity, 5.03 µM.

For the molecule `COc1ccc(-c2cc(C(F)(F)F)nc(S(=O)(=O)CCCC(=O)Nc3cccnc3Cl)n2)cc1OC`, the IC50 in experiment [1] was 1.44 µM; in the experiment with Cytotoxicity, 1.32 µM.

As to `O=C(Nc1nc2ccc(F)cc2s1)C1CCN(S(=O)(=O)c2cc([N+](=O)[O-])ccc2Cl)CC1`, the IC50 is 6.4 µM in experiment [1] and 10.8 µM in the experiment with Cytotoxicity.

As for `Cc1c(C(=O)OCC(C)C)[nH]c2c1C(=O)CC(c1ccco1)C2` (stereo not drawn), in experiment [1], the IC50 entry was “inactive”. Further, the IC50 in the experiment with Cytotoxicity was 38.3 µM.

With `COc1ccc2cc3c(N)nn(C(=O)c4ccc(F)cc4)c3nc2c1`, the IC50 in experiment [1] was 1.29 µM; in the experiment with Cytotoxicity, 36.6 µM.

Turning to `CC(=O)OC1CCC2(C)C(CCC3C4CC=C(C(C)=O)C4(C)OC(=O)CC32)C1` (stereo not drawn), the figures for the IC50 (in experiment [1]; in the experiment on Cytotoxicity) were 0.972 µM and 5.07 µM, respectively.

On to `Cc1nc(N)c(C#N)c(-c2cccnc2)c1-c1ccccc1`, for which the figures for the 50% inhibitory concentration (IC50) (in experiment [1]; with Cytotoxicity) were 4.45 µM and 62.9 µM (inactive), respectively.

In the case of `Clc1cncc(Cl)c1N/N=C/c1ccncc1`, the figures for the IC50 (in experiment [1]; in the experiment on Cytotoxicity) were 1.67 µM and 12.5 µM, respectively.

`COc1ccc(N=Cc2cc3c(cc2O)OC(N)=C(C#N)C3c2ccccc2)cc1` (stereo not drawn): the half-inhibitory concentration (IC50) is 3.4 µM in experiment [1] and 59.8 µM (inactive) with Cytotoxicity.

For `CCOC(=O)c1[nH]c(C)c(C(=O)N2CCc3ccccc32)c1C`, the IC50 in experiment [1] was > 79 µM (inactive); with Cytotoxicity it was 44.5 µM.

For the molecule `CC1Sc2ccc(Cl)cc2-c2nc(N)ncc21` (stereo not drawn), the IC50 in experiment [1] was 6.98 µM; with Cytotoxicity it was 75 µM (inactive).

For the molecule `O=c1[nH]c2ccccc2n1C1CCN(C(c2cc3ccccc3o2)c2nnnn2-c2ccc3c(c2)OCCO3)CC1` (stereo not drawn), the IC50 in experiment [1] is 3.2 µM; with Cytotoxicity it was 10.2 µM.

For the molecule `Nc1ncnc2c1c(-c1ccc(Oc3ccccc3)cc1)cn2C1CCCC1`, the IC50 in experiment [1] was 6.66 µM; in the experiment with Cytotoxicity it was 11.3 µM.

With `Cc1csc(CNc2ncnc3ccc(-c4ccoc4)cc23)c1`, the IC50 is less than 0.3 µM in experiment [1] and 13.8 µM with Cytotoxicity.

With `COCCN1Cc2cccc(C(=O)Nc3cccc(-c4nc5ccccc5[nH]4)c3)c2C1=O`, the figures for the IC50 (in experiment [1]; in the experiment with Cytotoxicity) were 7.9 µM and 11.1 µM, respectively.

As for `CC(=O)Nc1ccc(S(=O)(=O)N2c3ccccc3C(C)=CC2(C)C)cc1`, in experiment [1], the IC50 result was “inactive”. In the experiment with Cytotoxicity, the IC50 was 44.5 µM.

With `Cc1c(O)ccc2c(-c3ccccc3)cc(=O)oc12`, the IC50 in experiment [1] was 3.98 µM; with Cytotoxicity, 70.9 µM (inactive).

As to `COc1ccc(S(=O)(=O)N2c3cc(C)ccc3OCC2C(C)(C)C)cc1` (stereo not drawn), the IC50 was 6.36 µM in experiment [1] and > 79 µM (inactive) in the experiment with Cytotoxicity.

For the molecule `Cc1ccc(S(=O)(=O)CC(CN2CCCCC2)N2CCCCC2)cc1` (stereo not drawn), the IC50 in experiment [1] is 6.85 µM; in the experiment on Cytotoxicity, 33.3 µM.

As to `CCCCNc1c(-c2cccc(-c3ccc(OC)cc3)c2)nc2ccc(C)cn12`, the IC50 in experiment [1] is 4.98 µM; with Cytotoxicity, 1.72 µM.
